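Each compound was tested at five concentrations against cells in 96-well plates for 48 hours. Here, GI50 denotes the concentration required for 50% inhibition of growth. The concentration for full growth arrest is given as TGI.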
How the values were obtained:
Assay in all cases: NCI-60 cell line screen, 48 h
BT-549 breast = test system: BT-549 breast
DU-145 prostate = test system: DU-145 prostate
OVCAR-4 ovarian = test system: OVCAR-4 ovarian
MOLT-4 leukemia = test system: MOLT-4 leukemia
SK-MEL-2 melanoma = test system: SK-MEL-2 melanoma
SK-MEL-28 melanoma = test system: SK-MEL-28 melanoma
HOP-92 NSCLC = test system: HOP-92 NSCLC
NCI-H460 lung = test system: NCI-H460 lung
SK-MEL-5 melanoma = test system: SK-MEL-5 melanoma
UACC-62 melanoma = test system: UACC-62 melanoma
COLO 205 colon = test system: COLO 205 colon
UACC-257 melanoma = test system: UACC-257 melanoma
KM12 colon = test system: KM12 colon
EKVX NSCLC = test system: EKVX NSCLC
UO-31 renal = test system: UO-31 renal
SF-268 CNS = test system: SF-268 CNS
IGROV1 ovarian = test system: IGROV1 ovarian
SN12C renal = test system: SN12C renal
K-562 leukemia = test system: K-562 leukemia
OVCAR-3 ovarian = test system: OVCAR-3 ovarian
ACHN renal = test system: ACHN renal
SF-295 CNS = test system: SF-295 CNS
TK-10 renal = test system: TK-10 renal
M14 melanoma = test system: M14 melanoma
T-47D breast = test system: T-47D breast
LOX IMVI melanoma = test system: LOX IMVI melanoma
NCI-H23 lung = test system: NCI-H23 lung
SF-539 CNS = test system: SF-539 CNS
MDA-MB-435 = test system: MDA-MB-435
OVCAR-8 ovarian = test system: OVCAR-8 ovarian
MDA-MB-468 breast = test system: MDA-MB-468 breast
SR leukemia = test system: SR leukemia
OVCAR-5 ovarian = test system: OVCAR-5 ovarian
A549 NSCLC = test system: A549 NSCLC
U251 CNS = test system: U251 CNS
SW-620 colon = test system: SW-620 colon
RPMI-8226 leukemia = test system: RPMI-8226 leukemia
HL-60(TB) leukemia = test system: HL-60(TB) leukemia
786-0 renal = test system: 786-0 renal
HT29 colon = test system: HT29 colon
SNB-19 CNS = test system: SNB-19 CNS
A498 renal = test system: A498 renal
MDA-MB-231 breast = test system: MDA-MB-231 breast
CAKI-1 renal = test system: CAKI-1 renal
CCRF-CEM leukemia = test system: CCRF-CEM leukemia
HS 578T breast = test system: HS 578T breast
HCT-15 colon = test system: HCT-15 colon
NCI/ADR-RES ovarian = test system: NCI/ADR-RES ovarian
HCC-2998 colon = test system: HCC-2998 colon
NCI-H226 lung = test system: NCI-H226 lung
PC-3 prostate = test system: PC-3 prostate
HCT-116 colon = test system: HCT-116 colon
SK-OV-3 ovarian = test system: SK-OV-3 ovarian
MALME-3M melanoma = test system: MALME-3M melanoma
HOP-62 NSCLC = test system: HOP-62 NSCLC
NCI-H522 lung = test system: NCI-H522 lung
SNB-75 CNS = test system: SNB-75 CNS
MCF7 breast = test system: MCF7 breast

`C[C@H]1[C@H](OC(=O)CCC(=O)N(CCCc2cn(-c3ccc(CN4CCOCC4)cc3)nn2)CCNc2ccnc3cc(Cl)ccc23)O[C@@H]2OC3(C)CC[C@H]4[C@H](C)CC[C@@H]1[C@@]24OO3` showed a GI50 (BT-549 breast) of 0.899 µM, a TGI (BT-549 breast) of 8.42 µM and a GI50 (DU-145 prostate) of 6.84 µM. It also gave a TGI (DU-145 prostate) greater than 11.8 µM, a GI50 (OVCAR-4 ovarian) of 0.869 µM and a TGI (OVCAR-4 ovarian) greater than 11.8 µM. For the same compound, the GI50 (MOLT-4 leukemia) was 0.317 µM, the TGI (MOLT-4 leukemia) was 3.27 µM and the GI50 (SK-MEL-2 melanoma) was 3.16 µM. It also gave a TGI (SK-MEL-2 melanoma) greater than 11.8 µM, a GI50 (SK-MEL-28 melanoma) of 1.43 µM and a TGI (SK-MEL-28 melanoma) of 3.62 µM. The GI50 (HOP-92 NSCLC) was 0.506 µM, the TGI (HOP-92 NSCLC) was 4.65 µM and the GI50 (NCI-H460 lung) was 2.2 µM. For the same compound, the TGI (NCI-H460 lung) was 9.5 µM, the GI50 (SK-MEL-5 melanoma) was 1.19 µM and the TGI (SK-MEL-5 melanoma) was 2.58 µM. It also gave a GI50 (UACC-62 melanoma) of 1.15 µM, a TGI (UACC-62 melanoma) greater than 11.8 µM and a GI50 (COLO 205 colon) of 0.623 µM. The TGI (COLO 205 colon) was greater than 11.8 µM, the GI50 (UACC-257 melanoma) was 1.19 µM and the TGI (UACC-257 melanoma) was 2.82 µM. For the same compound, the GI50 (KM12 colon) was 0.596 µM, the TGI (KM12 colon) was greater than 11.8 µM and the GI50 (EKVX NSCLC) was 1.08 µM. The TGI (EKVX NSCLC) was greater than 11.8 µM, the GI50 (UO-31 renal) was 1.98 µM and the TGI (UO-31 renal) was greater than 11.8 µM. For the same compound, the GI50 (SF-268 CNS) was 2.72 µM, the TGI (SF-268 CNS) was greater than 11.8 µM and the GI50 (IGROV1 ovarian) was 3.73 µM. For the same compound, the TGI (IGROV1 ovarian) was greater than 11.8 µM, the GI50 (SN12C renal) was 2.98 µM and the TGI (SN12C renal) was greater than 11.8 µM. It also gave a GI50 (K-562 leukemia) of 0.33 µM, a TGI (K-562 leukemia) of 2.39 µM and a GI50 (OVCAR-3 ovarian) of 0.681 µM. It also gave a TGI (OVCAR-3 ovarian) greater than 11.8 µM, a GI50 (ACHN renal) of 2.74 µM and a TGI (ACHN renal) greater than 11.8 µM. For the same compound, the GI50 (SF-295 CNS) was 2.47 µM, the TGI (SF-295 CNS) was greater than 11.8 µM and the GI50 (TK-10 renal) was 11.7 µM. It also gave a TGI (TK-10 renal) greater than 11.8 µM, a GI50 (M14 melanoma) of 1.59 µM and a TGI (M14 melanoma) of 3.45 µM. It also gave a GI50 (T-47D breast) of 0.46 µM, a TGI (T-47D breast) greater than 11.8 µM and a GI50 (LOX IMVI melanoma) of 0.692 µM. The TGI (LOX IMVI melanoma) was 3.54 µM, the GI50 (NCI-H23 lung) was 2.28 µM and the TGI (NCI-H23 lung) was greater than 11.8 µM. It also gave a GI50 (SF-539 CNS) of 1.59 µM, a TGI (SF-539 CNS) of 3.23 µM and a GI50 (MDA-MB-435) of 0.8 µM. The TGI (MDA-MB-435) was 8.91 µM, the GI50 (OVCAR-8 ovarian) was 0.801 µM and the TGI (OVCAR-8 ovarian) was greater than 11.8 µM. The GI50 (MDA-MB-468 breast) was 0.943 µM, the TGI (MDA-MB-468 breast) was 4.92 µM and the GI50 (SR leukemia) was 0.408 µM. For the same compound, the TGI (SR leukemia) was 2.47 µM, the GI50 (OVCAR-5 ovarian) was 1.31 µM and the TGI (OVCAR-5 ovarian) was greater than 11.8 µM. The GI50 (A549 NSCLC) was 3.25 µM, the TGI (A549 NSCLC) was greater than 11.8 µM and the GI50 (U251 CNS) was 1.42 µM. It also gave a TGI (U251 CNS) of 8.27 µM, a GI50 (SW-620 colon) of 0.533 µM and a TGI (SW-620 colon) greater than 11.8 µM. For the same compound, the GI50 (RPMI-8226 leukemia) was 0.406 µM, the TGI (RPMI-8226 leukemia) was 5.62 µM and the GI50 (HL-60(TB) leukemia) was 0.359 µM. It also gave a TGI (HL-60(TB) leukemia) of 1.44 µM, a GI50 (786-0 renal) of 1.53 µM and a TGI (786-0 renal) of 3.54 µM. For the same compound, the GI50 (HT29 colon) was 0.745 µM, the TGI (HT29 colon) was 3.88 µM and the GI50 (SNB-19 CNS) was 7.35 µM. It also gave a TGI (SNB-19 CNS) greater than 11.8 µM, a GI50 (A498 renal) greater than 11.8 µM and a TGI (A498 renal) greater than 11.8 µM. For the same compound, the GI50 (MDA-MB-231 breast) was 3.05 µM, the TGI (MDA-MB-231 breast) was greater than 11.8 µM and the GI50 (CAKI-1 renal) was 4.56 µM. The TGI (CAKI-1 renal) was greater than 11.8 µM, the GI50 (CCRF-CEM leukemia) was 1.02 µM and the TGI (CCRF-CEM leukemia) was greater than 11.8 µM. For the same compound, the GI50 (HS 578T breast) was 1.23 µM, the TGI (HS 578T breast) was 8.09 µM and the GI50 (HCT-15 colon) was 0.389 µM. It also gave a TGI (HCT-15 colon) of 4.19 µM, a GI50 (NCI/ADR-RES ovarian) of 2.64 µM and a TGI (NCI/ADR-RES ovarian) greater than 11.8 µM. It also gave a GI50 (HCC-2998 colon) of 3.13 µM, a TGI (HCC-2998 colon) greater than 11.8 µM and a GI50 (NCI-H226 lung) of 2.54 µM. For the same compound, the TGI (NCI-H226 lung) was greater than 11.8 µM, the GI50 (PC-3 prostate) was 0.234 µM and the TGI (PC-3 prostate) was greater than 11.8 µM. The GI50 (HCT-116 colon) was 0.372 µM, the TGI (HCT-116 colon) was 2.68 µM and the GI50 (SK-OV-3 ovarian) was greater than 11.8 µM. For the same compound, the TGI (SK-OV-3 ovarian) was greater than 11.8 µM, the GI50 (MALME-3M melanoma) was 1.51 µM and the TGI (MALME-3M melanoma) was 3.04 µM. The GI50 (HOP-62 NSCLC) was 10.8 µM, the TGI (HOP-62 NSCLC) was greater than 11.8 µM and the GI50 (NCI-H522 lung) was 0.505 µM. The TGI (NCI-H522 lung) was greater than 11.8 µM, the GI50 (SNB-75 CNS) was 11.6 µM and the TGI (SNB-75 CNS) was greater than 11.8 µM. For the same compound, the GI50 (MCF7 breast) was 0.821 µM and the TGI (MCF7 breast) was greater than 11.8 µM.
